Measurements reported in patent US11530237B2, “Compositions and methods for treating CNS disorders” (Sage Therapeutics, Inc., priority 2014, dated 2022).

Key:
[1] = target: [35S]-TBPS binding, rat brain cortical membranes; assay: Steroid inhibition of TBPS binding ([35S]-TBPS radioligand displacement); conditions: 3 nM [35S]-TBPS, 5 μM GABA
Protocol: TBPS binding assays using rat brain cortical membranes in the presence of 5 μM GABA has been described (Gee et al, J. Pharmacol. Exp. Then 1987, 241, 346-353; Hawkinson et al, Mol. Pharmacol. 1994, 46, 977-985; Lewin, A. H et al., Mol. Pharmacol. 1989, 35, 189-194).
Briefly, cortices are rapidly removed following decapitation of carbon dioxide-anesthetized Sprague-Dawley rats (200-250 g). The cortices are homogenized in 10 volumes of […] using a glass/teflon homogenizer and centrifuged at 1500×g for 10 min at 4° C. The resultant supernatants are centrifuged at 10,000×g for 20 min at 4° C. to obtain the P2 pellets. The P2 pellets are resuspended in 200 mM NaCl/50 mM Na—K phosphate pH 7.4 buffer and centrifuged at 10,000×g for 10 min at 4° C. This washing procedure is repeated twice and the pellets are resuspended in 10 volumes of buffer. Aliquots (100 μL) of the membrane suspensions are incubated with 3 nM [^35S]-TBPS and 5 μL aliquots of test drug dissolved in dimethyl sulfoxide (DMSO) (final 0.5%) in the presence of 5 μM GABA. The incubation is brought to a final volume of 1.0 mL with buffer. […] Following a 90 min incubation at room temp, the assays are terminated by filtration through glass fiber filters (Schleicher and Schuell No. 32) using a cell harvester (Braudel) and rinsed three times with ice-cold buffer. Filter bound radioactivity is measured by liquid scintillation spectrometry. Non-linear curve fitting of the overall data for each drug averaged for each concentration is done using Prism (GraphPad).
Various compounds are or can be screened to determine their potential as modulators of [^35S]-TBPS binding in vitro. These assays are or can be performed in accordance with the above discussed procedures.

[2] = target: α1β2γ2 GABAA receptors (Homo sapiens (Human), UniProt P14867+P47870); assay: Patch clamp electrophysiology (QPatch) of recombinant α1β2γ2 GABAA receptors in LTK cells; type: cell-based; conditions: 10 μM test article, GABA EC20 = 2 μM; for Emax at 10 µM: read-out: GABA (α1β2γ2) Qpatch in Ltk, % efficacy at 10 μM
Protocol: Cellular electrophysiology is used to measure the pharmacological properties of our GABAA receptor modulators in heterologous cell systems. Each compound is tested for its ability to affect GABA mediated currents at a suhmaximal agonist dose (GABA EC20=2 μM). LTK cells are stably transfected with the α1β2γ2 subunits of the GABA receptor and CHO cells are transiently transfected with the α4β3δ subunits via the Lipofecatamine method. Cells were passaged at a confluence of about 50-80% and then seeded onto 35 mm sterile culture dishes containing 2 ml culture complete medium without antibiotics or antimycotics. Confluent clusters of cells are electrically coupled (Pritchett et al., Science, 1988, 242, 1306-1308). Because responses in distant cells are not adequately voltage clamped and because of uncertainties about the extent of coupling (Verdoom et al., Neuron 1990, 4, 919-928), cells were cultivated at a density that enables the recording of single cells (without visible connections to other cells).
Whole cell currents were measured with HEKA EPC-10 amplifiers using PatchMaster software or by using the high throughput QPatch platform (Sophion). Bath solution for all experiments contained (in mM): NaCl 137 mM, KCl 4 mM, CaCl2 1.8 mM, MgCl2 1 mM, HEPES 10 mM, D-Glucose 10 mM, pH (NaOH) 7.4. In some cases 0.005% cremophor was also added. Intracellular (pipette) solution contained: KCl 130 mM, MgCl2 1 mM, Mg-ATP 5 mM, HEPES 10 mM, EGTA 5 mM, pH 7.2. During experiments, cells and solutions were maintained at room temperature (19° C.-30° C.). For manual patch clamp recordings, cell culture dishes were placed on the dish holder of the microscope and continuously perfused (1 ml/min) with bath solution. After formation of a Gigaohm seal between the patch electrodes and the cell (-ipette resistance range: 2.5 MΩ-6.0 MΩ; seal resistance range:>1 GΩ) the cell membrane across the pipette tip was ruptured to assure electrical access to the cell interior (whole-cell patch-configuration). For experiments using the QPatch system, cells were transferred as suspension to the QPatch system in the bath solution and automated whole cell recordings were performed.
Cells were voltage clamped at a holding potential of −80 mV. For the analysis of test articles, GABA receptors were stimulated by 2 μM GABA after sequential pre-incubation of increasing concentrations of the test article. Pre-incubation duration was 30 s and the duration of the GABA stimulus was 2s. Test articles were dissolved in DMSO to form stock solutions (10 mM). Test articles were diluted to 0.01, 0.1, 1, and 10 μM in bath solution. All concentrations of test articles were tested on each cell. The relative percentage potentiation was defined as the peak amplitude in response to GABA EC20 in the presence of the test article divided by the peak amplitude in response to GABA EC20 alone, multiplied by 100. For Table 2. GABAA receptors α1β2γ2 and α4β3δ% efficacy: “A” 10-100, “B”>100-500, “C”>500; D indicates the data is not available or has not been determined.

SMILES | IC50 [1] [nM] | Emax at 10 µM [2] [%] | GABA (α1β2γ2) Qpatch in Ltk, % efficacy at 10 μM [2]
C[C@H](C(=O)[C@H]1CC[C@H]2[C@@H]3CC[C@H]4C[C@](C)(O)CC[C@]4(C)[C@H]3CC[C@]12C)n1ccnn1 [Compound 92, (R)-1-((3R,5S,8R,9S,10S,13S,14S,17S)-3-hydroxy-3,10,13-trimethylhexadecahydro-1H-cyclopenta[a]phenanthren-17-yl)-2-(1H-1,2,3-triazol-1-yl)propan-1-one] | > 500 |  | 
C[C@@H](C(=O)[C@H]1CC[C@H]2[C@@H]3CC[C@H]4C[C@](C)(O)CC[C@]4(C)[C@H]3CC[C@]12C)n1ccnn1 [Compound 93, (S)-1-((3R,5S,8R,9S,10S,13S,14S,17S)-3-hydroxy-3,10,13-trimethylhexadecahydro-1H-cyclopenta[a]phenanthren-17-yl)-2-(1H-1,2,3-triazol-1-yl)propan-1-one] | 100 to 500 |  | 
C[C@H](C(=O)[C@H]1CC[C@H]2[C@@H]3CC[C@H]4C[C@](C)(O)CC[C@]4(C)[C@H]3CC[C@]12C)n1nc2ccccc2n1 [Compound 98, (R)-2-(2H-benzo[d][1,2,3]triazol-2-yl)-1-((3R,5S,8R,9S,10S,13S,14S,17S)-3-hydroxy-3,10,13-trimethylhexadecahydro-1H-cyclopenta[a]phenanthren-17-yl)propan-1-one] | 50 to 100 |  | 
C[C@@H](C(=O)[C@H]1CC[C@H]2[C@@H]3CC[C@H]4C[C@](C)(O)CC[C@]4(C)[C@H]3CC[C@]12C)n1nc2ccccc2n1 [Compound 99, (S)-2-(2H-benzo[d][1,2,3]triazol-2-yl)-1-((3R,5S,8R,9S,10S,13S,14S,17S)-3-hydroxy-3,10,13-trimethylhexadecahydro-1H-cyclopenta[a]phenanthren-17-yl)propan-1-one] | 10 to 50 |  | 
C[C@H](C(=O)[C@H]1CC[C@H]2[C@@H]3CC[C@H]4C[C@](C)(O)CC[C@]4(C)[C@H]3CC[C@]12C)n1nnc2ccccc21 [Compound 100, (R)-2-(1H-benzo[d][1,2,3]triazol-1-yl)-1-((3R,5S,8R,9S,10S,13S,14S,17S)-3-hydroxy-3,10,13-trimethylhexadecahydro-1H-cyclopenta[a]phenanthren-17-yl)propan-1-one] | > 500 |  | 
C[C@@H](C(=O)[C@H]1CC[C@H]2[C@@H]3CC[C@H]4C[C@](C)(O)CC[C@]4(C)[C@H]3CC[C@]12C)n1nnc2ccccc21 [Compound 101, (S)-2-(1H-benzo[d][1,2,3]triazol-1-yl)-1-((3R,5S,8R,9S,10S,13S,14S,17S)-3-hydroxy-3,10,13-trimethylhexadecahydro-1H-cyclopenta[a]phenanthren-17-yl)propan-1-one] | 50 to 100 |  | 
CC(C)(C(=O)[C@H]1CC[C@H]2[C@@H]3CC[C@H]4C[C@](C)(O)CC[C@]4(C)[C@H]3CC[C@]12C)n1nnc2ccccc21 [Compound 102, 2-(1H-benzo[d][1,2,3]triazol-1-yl)-1-((3R,5S,8R,9S,10S,13S,14S,17S)-3-hydroxy-3,10,13-trimethylhexadecahydro-1H-cyclopenta[a]phenanthren-17-yl)-2-methylpropan-1-one] | > 500 |  | 
C[C@@]1(O)CC[C@@]2(C)[C@@H](CC[C@@H]3[C@@H]2CC[C@]2(C)[C@@H](C(=O)Cn4nc5ccc(F)c(F)c5n4)CC[C@@H]32)C1 [Compound 108, 2-(4,5-difluoro-2H-benzo[d][1,2,3]triazol-2-yl)-1-((3R,5S,8R,9S,10S,13S,14S,17S)-3-hydroxy-3,10,13-trimethylhexadecahydro-1H-cyclopenta[a]phenanthren-17-yl)ethanone] | 10 to 50 | 100 to 500 | 
C[C@@]1(O)CC[C@@]2(C)[C@@H](CC[C@@H]3[C@@H]2CC[C@]2(C)[C@@H](C(=O)Cn4nnc5ccc(Cl)c(F)c54)CC[C@@H]32)C1 [Compound 113] | 10 to 50 |  | B (>100-500)
C[C@@]1(O)CC[C@@]2(C)[C@@H](CC[C@@H]3[C@@H]2CC[C@]2(C)[C@@H](C(=O)Cn4cnc(C#N)c4)CC[C@@H]32)C1 [Compound 138] | 100 to 500 |  | C (>500)
C[C@@]1(O)CC[C@@]2(C)[C@@H](CC[C@@H]3[C@@H]2CC[C@]2(C)[C@@H](C(=O)Cn4cc(N)cn4)CC[C@@H]32)C1 [Compound 152, 2-(4-amino-1H-pyrazol-1-yl)-1-((3R,5S,8R,9S,10S,13S,14S,17S)-3-hydroxy-3,10,13-trimethylhexadecahydro-1H-cyclopenta[a]phenanthren-17-yl)ethanone] | 100 to 500 | 100 to 500 | 
CC(=O)Nc1cnn(CC(=O)[C@H]2CC[C@H]3[C@@H]4CC[C@H]5C[C@](C)(O)CC[C@]5(C)[C@H]4CC[C@]23C)c1 [Compound 153, N-(1-(2-((3R,5S,8R,9S,10S,13S,14S,17S)-3-hydroxy-3,10,13-trimethylhexadecahydro-1H-cyclopenta[a]phenanthren-17-yl)-2-oxoethyl)-1H-pyrazol-4-yl)acetamide] | 100 to 500 | 100 to 500 | 
C[C@@]1(O)CC[C@@]2(C)[C@@H](CC[C@@H]3[C@@H]2CC[C@]2(C)[C@@H](C(=O)Cn4cc5ccc(F)cc5n4)CC[C@@H]32)C1 [Compound 237] | 10 to 50 |  | 
C[C@@]1(O)CC[C@@]2(C)[C@@H](CC[C@@H]3[C@@H]2CC[C@]2(C)[C@@H](C(=O)Cn4ncc5ccc(F)cc54)CC[C@@H]32)C1 [Compound 238] | 50 to 100 |  | 
C[C@@]1(O)CC[C@@]2(C)[C@@H](CC[C@@H]3[C@@H]2CC[C@]2(C)[C@@H](C(=O)Cn4cc5cc(F)ccc5n4)CC[C@@H]32)C1 [Compound 239] | 10 to 50 |  | 
C[C@@]1(O)CC[C@@]2(C)[C@@H](CC[C@@H]3[C@@H]2CC[C@]2(C)[C@@H](C(=O)Cn4ncc5cc(F)ccc54)CC[C@@H]32)C1 [Compound 240] | 10 to 50 |  | 
C[C@@]1(O)CC[C@@]2(C)[C@@H](CC[C@@H]3[C@@H]2CC[C@]2(C)[C@@H](C(=O)Cn4nc5ccc(F)cc5n4)CC[C@@H]32)C1 [Compound 245] | 10 to 50 |  | 
C[C@@]1(O)CC[C@@]2(C)[C@@H](CC[C@@H]3[C@@H]2CC[C@]2(C)[C@@H](C(=O)Cn4nc5ccc(F)cc5n4)CC[C@@H]32)C1 [Compound 246] | < 10 |  | 
CSc1ccc2nnn(CC(=O)[C@H]3CC[C@H]4[C@@H]5CC[C@H]6C[C@](C)(O)CC[C@]6(C)[C@H]5CC[C@]34C)c2c1 [Compound 248] | < 10 |  | 
C[C@@]1(O)CC[C@@]2(C)[C@@H](CC[C@@H]3[C@@H]2CC[C@]2(C)[C@@H](C(=O)Cc4cccc(F)c4)CC[C@@H]32)C1 [Compound 257] | 100 to 500 |  | 
